Measured values reported in article PMC10662156 (Scientific Reports, 2023).

Legend:
ALDH2 [1] = target: T1, ALDH2 (Homo sapiens, UniProt P05091); assay: QuantiChrom ALDH inhibitor screening kit, % inhibition at […], recombinant enzyme; type: biochemical
T1 sequence (P05091 18-517): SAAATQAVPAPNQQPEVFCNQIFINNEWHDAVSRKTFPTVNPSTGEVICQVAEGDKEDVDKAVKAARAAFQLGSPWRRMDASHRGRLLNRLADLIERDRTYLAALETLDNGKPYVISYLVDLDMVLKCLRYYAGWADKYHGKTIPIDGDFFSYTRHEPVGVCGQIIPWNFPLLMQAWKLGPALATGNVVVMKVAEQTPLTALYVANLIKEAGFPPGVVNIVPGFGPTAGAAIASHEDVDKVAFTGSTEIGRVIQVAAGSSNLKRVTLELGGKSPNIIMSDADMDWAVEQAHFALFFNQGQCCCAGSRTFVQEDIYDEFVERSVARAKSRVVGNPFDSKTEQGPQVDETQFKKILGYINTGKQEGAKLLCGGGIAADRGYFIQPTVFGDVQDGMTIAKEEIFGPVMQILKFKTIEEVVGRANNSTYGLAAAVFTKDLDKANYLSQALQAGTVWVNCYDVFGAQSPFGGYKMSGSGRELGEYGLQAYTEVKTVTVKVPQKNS

ALDH2 [2] = target: T1, ALDH2; assay: QuantiChrom ALDH inhibitor screening kit, diaphorase/MTT-coupled colorimetric assay ([…] nm), recombinant enzyme; type: biochemical

inhibition at 20 µM (ALDH2 [1]) | Compound | IC50 (ALDH2 [2])
25.8 ± 1.31% | COc1ccc(-c2oc3cc(O)cc(O)c3c(=O)c2O)cc1O [compound 8, tamarixetin] | 
 | O=C(O)[C@H]1O[C@@H](Oc2c(-c3ccc(O)c(O)c3)oc3cc(O)cc(O)c3c2=O)[C@H](O)[C@@H](O)[C@@H]1O [compound 9, quercetin-3-glucuronide] | 9.62 µM
 | O=c1c(O)c(-c2ccc(O)c(O)c2)oc2cc(O)cc(O)c12 [compound 2, quercetin] | 26.5 µM
